Experimental data reported in patent US12030867B2, “Hsp90β selective inhibitors” (University of Notre Dame du Lac, priority 2018, dated 2024).
Where two headings read alike, the source gives them in different places.

Assays:
Hsp90α = Hsp90α (Homo sapiens (Human), UniProt P07900); experiment: fluorescence polarization (FP) assay, competitive displacement of FITC labeled Geldanamycin; type: binding
Method: (§1) Once prepared, the compounds were evaluated for their binding affinities against the cytosolic isoforms, Hsp90α and Hsp90β by measuring their ability to competitively displace FITC labeled Geldanamycin (GDA) in a fluorescence polarization assay (apparent Kd's listed in Table 1). […] The alkyne (4k) was investigated to determine whether a linear substituent could project into the subpocket and affect selectivity.

Hsp90β [1] = target: T1, Hsp90β (Homo sapiens (Human), UniProt P08238); experiment: as above; type: binding
Method: as §1

Grp94 = Grp94 (Homo sapiens (Human), UniProt P14625); experiment: binding affinity towards Grp94
other colon cancer cells = experiment: cells
[2] = tested on: UM-UC-3 bladder cancer cells; experiment: cells; details: Homo sapiens, UMUC3
[3] = tested on: LNCap-LN3 prostate cancer cells; experiment: cells
prostate cancer cells = experiment: cells; details: read-out: efficacy against prostate cancer cells
[4] = tested on: LAPC4 prostate cancer cells; experiment: cells; details: Homo sapiens
[5] = tested on: Hsp90 client proteins in UM-UC-3 cells; experiment: western blot analysis of client proteins in UM-UC-3 cells; type: cell-based; details: 24-hour incubation
Method: Since Hsp90 inhibition induces the degradation of Hsp90-dependent substrates via the ubiquitin-proteosome pathway, the levels of both kinase and non-kinase Hsp90 clients were assessed via western blot analysis. […]. […] […]. Survivin, which is an Hsp90α dependent substrate was not affected, providing direct evidence for isoform-selective inhibition in a cellular context.

[6] = tested on: PC3-MM2 prostate cancer cells; experiment: cells; details: Homo sapiens, PC3MM2
HT29 cells = experiment: cells; details: Homo sapiens, HT-29
T24 bladder cancer cells = experiment: tissue or blood
Trap-1 = Trap-1 (Homo sapiens (Human), UniProt Q12931); experiment: binding affinity towards Trap-1
[7] = tested on: C4-2b prostate cancer cells; experiment: cells
Hsp90β [8] = target: T1, Hsp90β; details: previously reported inhibitors; cited from earlier work
[9] = apparent Kd, FP assay, read-out: Hsp90α Kd
[10] = apparent Kd, FP assay, read-out: Hsp90β Kd

T1 sequence (P08238 whole entry): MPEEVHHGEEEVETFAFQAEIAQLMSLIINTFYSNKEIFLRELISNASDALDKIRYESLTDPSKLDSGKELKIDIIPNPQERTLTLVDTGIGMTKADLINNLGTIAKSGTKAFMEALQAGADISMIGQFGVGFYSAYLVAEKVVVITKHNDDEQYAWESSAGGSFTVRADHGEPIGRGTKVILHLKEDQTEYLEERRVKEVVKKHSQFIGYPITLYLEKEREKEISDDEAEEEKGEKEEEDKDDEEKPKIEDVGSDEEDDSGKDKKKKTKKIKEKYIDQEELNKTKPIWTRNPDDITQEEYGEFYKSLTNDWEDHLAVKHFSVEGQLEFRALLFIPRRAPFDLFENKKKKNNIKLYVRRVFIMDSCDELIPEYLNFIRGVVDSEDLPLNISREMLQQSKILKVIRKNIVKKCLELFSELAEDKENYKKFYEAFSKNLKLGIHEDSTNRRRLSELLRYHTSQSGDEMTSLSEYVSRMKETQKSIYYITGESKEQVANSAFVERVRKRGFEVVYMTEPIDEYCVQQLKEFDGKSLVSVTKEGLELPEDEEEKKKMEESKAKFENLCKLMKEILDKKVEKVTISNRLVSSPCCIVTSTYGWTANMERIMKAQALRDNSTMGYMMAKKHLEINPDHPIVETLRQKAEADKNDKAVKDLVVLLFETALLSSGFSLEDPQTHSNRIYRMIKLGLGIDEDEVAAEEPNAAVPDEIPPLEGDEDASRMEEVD
Trap-1, sequence (Q12931 60-704): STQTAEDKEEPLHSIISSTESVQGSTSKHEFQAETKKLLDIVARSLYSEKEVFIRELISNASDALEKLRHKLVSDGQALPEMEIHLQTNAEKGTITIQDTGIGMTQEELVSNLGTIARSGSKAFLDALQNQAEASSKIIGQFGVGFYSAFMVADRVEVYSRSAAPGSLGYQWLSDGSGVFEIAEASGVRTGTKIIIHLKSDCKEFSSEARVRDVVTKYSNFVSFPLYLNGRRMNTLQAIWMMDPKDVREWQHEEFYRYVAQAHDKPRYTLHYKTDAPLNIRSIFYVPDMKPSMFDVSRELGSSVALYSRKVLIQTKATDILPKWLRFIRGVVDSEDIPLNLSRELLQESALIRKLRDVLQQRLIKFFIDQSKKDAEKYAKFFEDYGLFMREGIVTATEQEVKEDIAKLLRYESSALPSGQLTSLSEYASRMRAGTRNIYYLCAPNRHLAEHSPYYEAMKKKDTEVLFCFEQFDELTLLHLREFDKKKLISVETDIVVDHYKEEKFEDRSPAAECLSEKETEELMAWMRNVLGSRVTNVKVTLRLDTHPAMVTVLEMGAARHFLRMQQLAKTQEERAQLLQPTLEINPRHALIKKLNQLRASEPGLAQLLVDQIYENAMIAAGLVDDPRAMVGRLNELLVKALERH
Grp94, sequence (P14625 22-803, species assumed): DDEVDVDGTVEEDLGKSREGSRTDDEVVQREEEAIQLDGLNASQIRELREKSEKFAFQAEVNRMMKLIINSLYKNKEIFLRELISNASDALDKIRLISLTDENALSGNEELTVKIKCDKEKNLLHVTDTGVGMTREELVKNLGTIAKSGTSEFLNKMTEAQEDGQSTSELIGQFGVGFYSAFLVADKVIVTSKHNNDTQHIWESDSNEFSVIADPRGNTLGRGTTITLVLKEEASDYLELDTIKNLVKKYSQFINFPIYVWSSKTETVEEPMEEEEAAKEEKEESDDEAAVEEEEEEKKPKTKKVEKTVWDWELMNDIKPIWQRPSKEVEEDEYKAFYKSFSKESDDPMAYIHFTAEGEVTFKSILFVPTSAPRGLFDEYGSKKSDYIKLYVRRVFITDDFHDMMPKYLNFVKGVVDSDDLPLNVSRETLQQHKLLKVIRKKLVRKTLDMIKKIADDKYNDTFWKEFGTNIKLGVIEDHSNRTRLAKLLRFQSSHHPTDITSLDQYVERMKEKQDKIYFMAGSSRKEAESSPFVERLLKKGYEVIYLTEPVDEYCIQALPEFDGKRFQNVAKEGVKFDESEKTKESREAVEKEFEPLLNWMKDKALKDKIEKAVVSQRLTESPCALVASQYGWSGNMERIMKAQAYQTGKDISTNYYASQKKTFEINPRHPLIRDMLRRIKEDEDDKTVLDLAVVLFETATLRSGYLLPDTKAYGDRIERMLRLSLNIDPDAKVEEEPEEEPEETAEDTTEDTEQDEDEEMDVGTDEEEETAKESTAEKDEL

Compound	Kd (Hsp90α; [9])	Kd (Hsp90β [1]; [10])	selectivity for Hsp90β over Hsp90α (in words) (Hsp90β [1]; FP assay)	further results
Cc1cc2cc(-n3nc(C)c4c3CC(C)(C)CC4=O)cc(N[C@H]3CC[C@H](O)CC3)c2c(=O)[nH]1 [Compound 4a, 8-(((1r,4r)-4-hydroxycyclohexyl)amino)-3-methyl-6-(3,6,6-trimethyl-4-oxo-4,5,6,7-tetrahydro-1H-indazol-1-yl)isoquinolin-1(2H)-one]	294 ± 23 nM	101 ± 3 nM		selectivity for Hsp90β over Hsp90α (Hsp90β [1]): 3 fold
CCc1cc2cc(-n3nc(C)c4c3CC(C)(C)CC4=O)cc(N[C@H]3CC[C@H](O)CC3)c2c(=O)[nH]1 [Compound 4b, 3-ethyl-8-(((1r,4r)-4-hydroxycyclohexyl)amino)-6-(3,6,6-trimethyl-4-oxo-4,5,6,7-tetrahydro-1H-indazol-1-yl)isoquinolin-1(2H)-one]	180 ± 36 nM	68 ± 8 nM		
Cc1nn(-c2cc(N[C@H]3CC[C@H](O)CC3)c3c(=O)[nH]c(C(C)C)cc3c2)c2c1C(=O)CC(C)(C)C2 [Compound 4c, 8-(((1r,4r)-4-hydroxycyclohexyl)amino)-3-isopropyl-6-(3,6,6-trimethyl-4-oxo-4,5,6,7-tetrahydro-1H-indazol-1-yl)isoquinolin-1(2H)-one]	173 ± 36 nM	51 ± 8 nM		
CCCc1cc2cc(-n3nc(C)c4c3CC(C)(C)CC4=O)cc(N[C@H]3CC[C@H](O)CC3)c2c(=O)[nH]1 [Compound 4d, 8-(((1r,4r)-4-hydroxycyclohexyl)amino)-3-propyl-6-(3,6,6-trimethyl-4-oxo-4,5,6,7-tetrahydro-1H-indazol-1-yl)isoquinolin-1(2H)-one]				Kd (Grp94): > 5000 nM; GI50 (other colon cancer cells): 50 to 80 nM; GI50 [2]: 508 nM; GI50 [3]: 1180 nM; IC50 (prostate cancer cells): 1000 to 2500 nM; GI50 [4]: 2560 nM; CXCR4 and B-raf levels (Hsp90β-dependent clients) [5]: marked dose-dependent reduction; FGFR3 level [5]: marked dose-dependent reduction; Hsp27 and Hsf-1 levels (heat shock related proteins) [5]: declined upon increasing doses; Survivin level (Hsp90α dependent substrate) [5]: not affected; GI50 [6]: 1240 nM; GI50 (HT29 cells): 26 nM; GI50 (T24 bladder cancer cells): 197 nM; Kd (Trap-1): > 5000 nM; GI50 [7]: 1030 nM
CCCCc1cc2cc(-n3nc(C)c4c3CC(C)(C)CC4=O)cc(N[C@H]3CC[C@H](O)CC3)c2c(=O)[nH]1 [Compound 4e, 3-butyl-8-(((1r,4r)-4-hydroxycyclohexyl)amino)-6-(3,6,6-trimethyl-4-oxo-4,5,6,7-tetrahydro-1H-indazol-1-yl)isoquinolin-1(2H)-one]	> 50000 nM	156 ± 18 nM		binding to Hsp90α (in words) (Hsp90α; FP assay): did not bind; Kd (Hsp90β [1]): 186 nM; selectivity for Hsp90β over Hsp90α (Hsp90β [1]): > 300 fold; affinity for Hsp90β (in words) (Hsp90β [1]; FP assay): did not bind
Cc1nn(-c2cc(N[C@H]3CC[C@H](O)CC3)c3c(=O)[nH]c(C(C)(C)C)cc3c2)c2c1C(=O)CC(C)(C)C2 [Compound 4f, 3-(tert-butyl)-8-(((1r,4r)-4-hydroxycyclohexyl)amino)-6-(3,6,6-trimethyl-4-oxo-4,5,6,7-tetrahydro-1H-indazol-1-yl)isoquinolin-1(2H)-one]	> 50000 nM	> 50000 nM		
Cc1nn(-c2cc(N[C@H]3CC[C@H](O)CC3)c3c(=O)[nH]c(CC(C)C)cc3c2)c2c1C(=O)CC(C)(C)C2 [Compound 4g, 8-(((1r,4r)-4-hydroxycyclohexyl)amino)-3-isobutyl-6-(3,6,6-trimethyl-4-oxo-4,5,6,7-tetrahydro-1H-indazol-1-yl)isoquinolin-1(2H)-one]	> 50000 nM	264 ± 30 nM	maintained selectivity	affinity for Hsp90β (in words) (Hsp90β [1]; FP assay): decrease in affinity
Cc1nn(-c2cc(N[C@H]3CC[C@H](O)CC3)c3c(=O)[nH]c(C4CC4)cc3c2)c2c1C(=O)CC(C)(C)C2 [Compound 4h, 3-cyclopropyl-8-(((1r,4r)-4-hydroxycyclohexyl)amino)-6-(3,6,6-trimethyl-4-oxo-4,5,6,7-tetrahydro-1H-indazol-1-yl)isoquinolin-1(2H)-one]	1880 ± 280 nM	946 ± 38 nM		affinity for Hsp90β (in words) (Hsp90β [1]; FP assay): loss of potency
COCc1cc2cc(-n3nc(C)c4c3CC(C)(C)CC4=O)cc(N[C@H]3CC[C@H](O)CC3)c2c(=O)[nH]1 [Compound 4i, 8-(((1r,4r)-4-hydroxycyclohexyl)amino)-3-(methoxymethyl)-6-(3,6,6-trimethyl-4-oxo-4,5,6,7-tetrahydro-1H-indazol-1-yl)isoquinolin-1(2H)-one]	306 ± 23 nM	159 ± 3 nM	loss of selectivity	
Cc1nn(-c2cc(N[C@H]3CC[C@H](O)CC3)c3c(=O)[nH]c(CO)cc3c2)c2c1C(=O)CC(C)(C)C2 [Compound 4j, 8-(((1r,4r)-4-hydroxycyclohexyl)amino)-3-(hydroxymethyl)-6-(3,6,6-trimethyl-4-oxo-4,5,6,7-tetrahydro-1H-indazol-1-yl)isoquinolin-1(2H)-one]	824 ± 104 nM	233 ± 18 nM	loss of selectivity	
C#Cc1cc2cc(-n3nc(C)c4c3CC(C)(C)CC4=O)cc(N[C@H]3CC[C@H](O)CC3)c2c(=O)[nH]1 [Compound 4k, 3-ethynyl-8-(((1r,4r)-4-hydroxycyclohexyl)amino)-6-(3,6,6-trimethyl-4-oxo-4,5,6,7-tetrahydro-1H-indazol-1-yl)isoquinolin-1(2H)-one]	381 ± 3 nM	337 ± 15 nM	without discrimination	
CCCc1cc2cc(-n3nc(C)c4c3CC(C)(C)CC4=O)cc(N3CCOCC3)c2c(=O)[nH]1 [Compound 5a, 8-morpholino-3-propyl-6-(3,6,6-trimethyl-4-oxo-4,5,6,7-tetrahydro-1H-indazol-1-yl)isoquinolin-1(2H)-one]	> 50000 nM	121 ± 17 nM	excellent selectivity	Kd (Hsp90β [1]; read-out: Kd for Hsp90β): ~121 nM
CCCc1cc2cc(-n3nc(C)c4c3CC(C)(C)CC4=O)cc(N3CCN(C)CC3)c2c(=O)[nH]1 [Compound 5c, 8-(4-methylpiperazin-1-yl)-3-propyl-6-(3,6,6-trimethyl-4-oxo-4,5,6,7-tetrahydro-1Hindazol-1-yl)isoquinolin-1(2H)-one]	8520 ± 240 nM	426 ± 53 nM	decrease in affinity and selectivity	affinity for Hsp90β (in words) (Hsp90β [1]; FP assay): decrease in affinity
CCCc1cc2cc(-n3nc(C)c4c3CC(C)(C)CC4=O)cc(N3CCNCC3)c2c(=O)[nH]1 [Compound 5d, 8-(piperazin-1-yl)-3-propyl-6-(3,6,6-trimethyl-4-oxo-4,5,6,7-tetrahydro-1H-indazol-1-yl)isoquinolin-1(2H)-one]	> 50000 nM	4470 ± 278 nM		
CCCc1cc2cc(-n3nc(C)c4c3CC(C)(C)CC4=O)cc(N3CCN(C(=O)OC(C)(C)C)CC3)c2c(=O)[nH]1 [Compound 5e, tert-butyl 4-(1-oxo-3-propyl-6-(3,6,6-trimethyl-4-oxo-4,5,6,7-tetrahydro-1H-indazol-1-yl)-1,2-dihydroisoquinolin-8-yl)piperazine-1-carboxylate]				Kd (Hsp90α): > 50000 nM; Kd (Hsp90β [1]): 463 ± 31 nM
CCCc1cc2cc(-n3nc(C)c4c3CC(C)(C)CC4=O)cc(NC3CCN(C)CC3)c2c(=O)[nH]1 [Compound 5f, 8-((1-methylpiperidin-4-yl)amino)-3-propyl-6-(3,6,6-trimethyl-4-oxo-4,5,6,7-tetrahydro-1Hindazol-1-yl)isoquinolin-1(2H)-one]	17100 ± 660 nM	513 ± 67 nM		
CCCc1cc2cc(-n3nc(C)c4c3CC(C)(C)CC4=O)cc(N(C)CCN(CC)CC)c2c(=O)[nH]1 [Compound 5g, 8-((2-(diethylamino)ethyl)(methyl)amino)-3-propyl-6-(3,6,6-trimethyl-4-oxo-4,5,6,7-tetrahydro-1H-indazol-1-yl)isoquinolin-1(2H)-one]	> 50000 nM	4460 ± 188 nM		
CCCC1Cc2cc(-n3nc(C)c4c3CC(C)(C)CC4=O)cc(N3CCC(O)CC3)c2C(=O)N1 (centres unmarked) [Compound 6b, 8-(4-hydroxypiperidin-1-yl)-3-propyl-6-(3,6,6-trimethyl-4-oxo-4,5,6,7-tetrahydro-1Hindazol-1-yl)-3,4-dihydroisoquinolin-1(2H)-one]			lost both selectivity and affinity	affinity for Hsp90β (in words) (Hsp90β [1]; FP assay): lost both selectivity and affinity
CC1(C)CC(=O)c2c(C(F)(F)F)nn(-c3ccc(C(N)=O)c(N[C@H]4CC[C@H](O)CC4)c3)c2C1 [SNX 2112]				Hsp90α/Hsp90β isoform profile (in words) (Hsp90β [8]): equipotent affinity
